What was measured:
Assay type in all cases: functional
[1] = molecular target: T1, Putative uncharacterized protein pk7 (Plasmodium falciparum, UniProt O96214); experiment: Final concentrations were 1 uM ATP, 2 mM DTT, 20 mM MgCl2, 2 mM MnCl2, 0.01% BSA, and 6 ug/ml PK7, in a buffer of 20 mM Tris-HCl (pH 7.5). The enzyme itself was the only substrate present (since autophosphorylation occurs); 100 uM 1NA-PP1 was used as a control inhibitor. Incubation time was 3 hours.
T1 sequence (O96214 whole entry): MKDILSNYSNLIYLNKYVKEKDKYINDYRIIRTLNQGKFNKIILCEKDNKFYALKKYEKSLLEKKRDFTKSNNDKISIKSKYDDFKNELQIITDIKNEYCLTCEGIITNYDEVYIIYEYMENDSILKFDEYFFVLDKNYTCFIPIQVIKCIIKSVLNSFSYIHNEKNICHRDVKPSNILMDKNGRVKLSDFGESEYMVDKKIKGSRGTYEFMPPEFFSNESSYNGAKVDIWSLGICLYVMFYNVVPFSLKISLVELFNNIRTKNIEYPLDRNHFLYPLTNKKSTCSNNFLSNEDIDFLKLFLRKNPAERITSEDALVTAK

Proline--tRNA ligase = molecular target: T2, Proline--tRNA ligase (Plasmodium falciparum (isolate 3D7), UniProt Q8I5R7); experiment: MMV: ProRS recombinant Plasmodium falciparum Prolyl-tRNA-synthetase, assay with yeast tRNA, ATP, and proline and 3 uM MMV malaria box compound, assay read out with kinase glo as % inhibition.
T2 sequence (Q8I5R7 whole entry): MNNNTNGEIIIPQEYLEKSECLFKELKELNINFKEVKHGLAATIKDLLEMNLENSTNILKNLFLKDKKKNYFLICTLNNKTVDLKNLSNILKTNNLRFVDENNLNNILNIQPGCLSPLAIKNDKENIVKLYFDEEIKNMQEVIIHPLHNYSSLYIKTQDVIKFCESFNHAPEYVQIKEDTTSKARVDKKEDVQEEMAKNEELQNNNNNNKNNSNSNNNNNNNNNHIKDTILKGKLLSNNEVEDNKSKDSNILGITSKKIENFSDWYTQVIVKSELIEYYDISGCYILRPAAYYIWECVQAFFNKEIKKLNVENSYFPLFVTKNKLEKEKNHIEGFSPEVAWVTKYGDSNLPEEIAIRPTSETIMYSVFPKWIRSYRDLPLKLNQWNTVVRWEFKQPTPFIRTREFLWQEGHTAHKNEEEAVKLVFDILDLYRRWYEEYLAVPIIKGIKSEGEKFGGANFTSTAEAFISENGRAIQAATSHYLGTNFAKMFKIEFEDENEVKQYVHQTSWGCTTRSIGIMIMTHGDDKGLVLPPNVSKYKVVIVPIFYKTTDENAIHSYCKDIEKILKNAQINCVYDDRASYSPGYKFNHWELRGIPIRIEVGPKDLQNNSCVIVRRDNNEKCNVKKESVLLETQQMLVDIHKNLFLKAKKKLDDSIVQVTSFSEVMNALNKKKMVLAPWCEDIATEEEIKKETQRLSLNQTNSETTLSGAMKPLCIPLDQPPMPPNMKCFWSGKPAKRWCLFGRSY

[2] = molecular target: Calcium-dependent protein kinase 1 (Plasmodium falciparum, UniProt P62344); experiment: MMV: CDPK1 Protein kinase inhibition assay using recombinant PfCDPK1, syntide 2 peptide substrate, ATP and KinaseGlo to measure % inhibition at 1 uM MMV box compound.
[3] = molecular target: T3, Calcium-dependent protein kinase 4 (Plasmodium falciparum (isolate 3D7), UniProt Q8IBS5); experiment: MMV: CDPK4 Protein kinase inhibition assay using recombinant PfCDPK4, syntide2 peptide substrate, ATP and KinaseGlo to measure % inhibition at 1 uM MMV box compound.
T3 sequence (Q8IBS5 whole entry): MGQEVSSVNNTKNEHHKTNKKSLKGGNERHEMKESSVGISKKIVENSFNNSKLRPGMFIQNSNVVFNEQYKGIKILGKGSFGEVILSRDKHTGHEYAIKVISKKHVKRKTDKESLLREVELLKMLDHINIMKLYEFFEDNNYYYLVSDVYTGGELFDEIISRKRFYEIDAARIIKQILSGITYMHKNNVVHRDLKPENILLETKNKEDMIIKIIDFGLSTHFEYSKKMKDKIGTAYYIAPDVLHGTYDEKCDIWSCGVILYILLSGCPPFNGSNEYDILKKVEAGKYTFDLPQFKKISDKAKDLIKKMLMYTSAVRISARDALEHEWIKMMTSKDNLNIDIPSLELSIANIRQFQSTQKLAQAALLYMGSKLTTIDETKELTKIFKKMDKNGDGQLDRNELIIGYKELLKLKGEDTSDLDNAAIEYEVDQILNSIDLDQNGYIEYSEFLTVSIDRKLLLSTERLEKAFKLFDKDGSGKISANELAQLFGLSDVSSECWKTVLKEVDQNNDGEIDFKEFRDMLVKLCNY

[4] = molecular target: T4, Mitogen-activated protein kinase (Plasmodium falciparum, UniProt Q25917); experiment: Final concentrations were 1 uM ATP, 0.5 mM DTT, 1 mM MgCl2, 0.5 mg/mL BSA, and 10 ug/ml MAP2 in a buffer of 50 mM HEPES (pH 7.0). 0.5 mg/mL histone III-S served as the substrate (13); 100 uM AMP-PNP, an ATP analog, was used as a control inhibitor. Incubation time was 4 hours.
T4 sequence (Q25917 whole entry): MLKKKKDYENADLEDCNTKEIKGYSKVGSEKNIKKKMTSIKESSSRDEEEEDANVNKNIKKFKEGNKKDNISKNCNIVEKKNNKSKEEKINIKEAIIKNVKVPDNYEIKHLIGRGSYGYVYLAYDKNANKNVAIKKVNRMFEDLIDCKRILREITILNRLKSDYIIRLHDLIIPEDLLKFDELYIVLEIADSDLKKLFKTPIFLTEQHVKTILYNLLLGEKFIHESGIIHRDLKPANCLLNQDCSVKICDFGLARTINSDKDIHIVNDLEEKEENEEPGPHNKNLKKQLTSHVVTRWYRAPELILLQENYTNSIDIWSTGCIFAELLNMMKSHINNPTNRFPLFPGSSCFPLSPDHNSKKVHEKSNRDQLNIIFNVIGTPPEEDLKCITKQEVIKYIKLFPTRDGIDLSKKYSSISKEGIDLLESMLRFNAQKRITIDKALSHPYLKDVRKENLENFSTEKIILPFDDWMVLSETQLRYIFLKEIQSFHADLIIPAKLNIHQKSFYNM

Lysine--tRNA ligase = Lysine--tRNA ligase (Plasmodium falciparum (isolate 3D7), UniProt Q8IDJ8); experiment: MMV: KRS recombinant Plasmodium falciparum Lysyl-tRNA-synthetase, assay with yeast tRNA, ATP, and lysine and 3 uM MMV malaria box compound, assay read out with kinase glo as % inhibition.
[5] = molecular target: T5, Cdk-related protein kinase 6 (Plasmodium falciparum, UniProt O77239); experiment: Final concentrations were 1.5 uM ATP, 5 mM MnCl2, and 15 ug/ml PK6 in a buffer of 100 mM Tris-HCl (pH 7.5). 50 ug/mL MBP was provided as the substrate; 10 uM staurosporine was used as a control inhibitor. Incubation time was 3 hours and 40 minutes.The catalytic activity of each kinase was considered proportional to ATP consumed, as determined from measurements of residual [ATP] with the luciferase-based reagent Kinase-Glo (Promega) following incubation. Luminescence (proportional to residual [ATP]) was measured on the plate readers FLx800 (BioTek Instruments, Winooski, VT, USA) and MicroBeta2.
T5 sequence (O77239 whole entry): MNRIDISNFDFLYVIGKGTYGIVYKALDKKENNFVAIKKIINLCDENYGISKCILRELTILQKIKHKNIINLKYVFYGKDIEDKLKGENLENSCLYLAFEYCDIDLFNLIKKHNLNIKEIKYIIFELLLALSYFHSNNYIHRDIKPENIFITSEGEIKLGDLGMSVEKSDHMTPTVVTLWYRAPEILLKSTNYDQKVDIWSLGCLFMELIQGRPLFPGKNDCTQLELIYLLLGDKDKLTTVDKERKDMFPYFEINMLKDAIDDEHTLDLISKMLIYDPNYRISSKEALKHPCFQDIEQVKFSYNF

Sequence of Lysine--tRNA ligase (Q8IDJ8 whole entry): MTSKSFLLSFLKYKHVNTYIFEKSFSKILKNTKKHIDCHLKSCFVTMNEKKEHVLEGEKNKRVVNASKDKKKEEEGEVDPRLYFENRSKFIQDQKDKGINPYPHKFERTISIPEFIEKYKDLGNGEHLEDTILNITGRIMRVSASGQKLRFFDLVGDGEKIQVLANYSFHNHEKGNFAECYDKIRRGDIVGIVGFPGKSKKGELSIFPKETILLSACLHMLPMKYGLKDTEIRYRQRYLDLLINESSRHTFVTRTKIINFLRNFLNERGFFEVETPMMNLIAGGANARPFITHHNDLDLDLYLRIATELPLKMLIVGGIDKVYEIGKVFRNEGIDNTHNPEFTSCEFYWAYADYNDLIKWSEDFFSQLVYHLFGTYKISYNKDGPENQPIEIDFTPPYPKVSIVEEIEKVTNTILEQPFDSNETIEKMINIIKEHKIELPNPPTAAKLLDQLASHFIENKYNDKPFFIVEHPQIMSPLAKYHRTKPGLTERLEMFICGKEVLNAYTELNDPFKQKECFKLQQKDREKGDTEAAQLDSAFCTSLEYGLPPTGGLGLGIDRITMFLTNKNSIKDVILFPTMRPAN
Sequence of Calcium-dependent protein kinase 1 (P62344 whole entry): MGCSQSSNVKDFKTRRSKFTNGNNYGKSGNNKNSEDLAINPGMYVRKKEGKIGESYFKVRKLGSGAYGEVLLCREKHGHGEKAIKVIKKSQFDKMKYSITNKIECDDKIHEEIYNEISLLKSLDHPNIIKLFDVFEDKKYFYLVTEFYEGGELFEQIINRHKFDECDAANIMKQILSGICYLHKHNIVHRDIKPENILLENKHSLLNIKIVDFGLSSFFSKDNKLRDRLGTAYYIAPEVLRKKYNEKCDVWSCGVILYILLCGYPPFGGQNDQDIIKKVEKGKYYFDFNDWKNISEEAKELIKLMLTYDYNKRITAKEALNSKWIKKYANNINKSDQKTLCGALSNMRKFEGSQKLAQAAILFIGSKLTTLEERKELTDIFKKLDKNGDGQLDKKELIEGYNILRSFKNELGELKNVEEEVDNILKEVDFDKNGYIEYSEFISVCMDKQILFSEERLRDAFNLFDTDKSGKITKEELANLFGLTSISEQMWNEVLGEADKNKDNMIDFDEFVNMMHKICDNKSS

SMILES	IC50 [1] [µM]	IC50 (Proline--tRNA ligase) [µM]	IC50 [2] [µM]	IC50 [3] [µM]	IC50 [4] [µM]	IC50 (Lysine--tRNA ligase) [µM]	IC50 [5] [µM]
COc1ccc(Nc2nc(N/N=C/c3ccc(O)cc3)nc(Nc3ccc([N+](=O)[O-])cc3)n2)cc1	> 1	> 2.5	> 1	> 1	> 1	> 2.5	> 1
O=C(NNc1cc(N2CCCC2)nc(N2CCCC2)n1)c1ccccc1	> 1	> 2.5	> 1	> 1	> 1	> 2.5	> 1
O=C(CCc1ccccc1)c1ccccc1OCC(O)CN1CCCCC1 (configuration not stated)	> 1	> 2.5	> 1	> 1	> 1	> 2.5	> 1
Cn1c(C(=O)c2cccc3ccccc23)nc2ccccc21	> 1	> 2.5	> 1	> 1	> 1	> 2.5	> 1
OCCNc1nc(Nc2ccc(Cl)c(Cl)c2)nc2ccccc12	> 1	> 2.5	> 1	> 1	> 1	> 2.5	> 1
Nc1ccc(-c2nc3cc(Oc4ccc(Oc5ccc6[nH]c(-c7ccc(N)cc7)nc6c5)cc4)ccc3[nH]2)cc1	> 1	> 2.5	> 1	> 1	> 1	> 2.5	> 1
CCc1ccc(CNCC(O)c2ccccc2)cc1 (configuration not stated)	> 1	> 2.5	> 1	> 1	> 1	> 2.5	> 1
CCCn1c(=N)c(C(=O)NC2CCCCC2)cc2c(=O)n3cccc(C)c3nc21	> 1	> 2.5	> 1	> 1	> 1	> 2.5	> 1
Nc1ccn([C@@H]2O[C@H](CO)[C@@H](O)[C@H]2O)c(=O)n1 [CYTIDINE]	> 1	> 2.5	> 1	> 1	> 1	> 2.5	> 1
O=C(Nc1cccc(C2=NCCN2)c1)Nc1cccc(C2=NCCN2)c1 [IMIDOCARB]	> 1	> 2.5	> 1	> 1	> 1	> 2.5	> 1
CN(C)c1ccc(C(O)(c2ccc(N(C)C)cc2)c2ccc(N(C)C)cc2)cc1 [METHYLROSANILINE]	> 1	> 2.5	> 1	> 1	> 1	> 2.5	> 1

— ChEMBL document CHEMBL3301562, “MMV Box screening against Plasmodium falciparum protein kinases and aminoacyl tRNA synthetases”
